Values of other authors as cited in paper PMC4303307 (Biochemistry, 2014).
Where no end group is shown, it is not given here.

Tested on: γ-crystallin
Details: cited from earlier work

## MAC peptide with an acetylated Lys 70: the MAC peptide with an acetylated Lys 70 used by Nahomi et al. (K(Ac)FVIFLDVKHFSPEDLTVK; UniProt P02489 70-88, looked up, fragment)
  chaperone activity of acetylated Lys vs Asp at the N-terminal end: enhanced chaperone activity
In vitro, γ-crystallin substrate
  increase of chaperone activity over nonacetylated peptide: ~15%
